Where two headings read alike, the source gives them in different places.
What was measured:
Type in all cases: cell-based
NR2F6 = biological target: T1, NR2F6 (Homo sapiens, UniProt P10588); assay: NR2F6 agonist screening, Firefly signal cmpd/DMSO
T1 construct: expressed in transfected cells; also transient transfection
T1 sequence (P10588 1-404): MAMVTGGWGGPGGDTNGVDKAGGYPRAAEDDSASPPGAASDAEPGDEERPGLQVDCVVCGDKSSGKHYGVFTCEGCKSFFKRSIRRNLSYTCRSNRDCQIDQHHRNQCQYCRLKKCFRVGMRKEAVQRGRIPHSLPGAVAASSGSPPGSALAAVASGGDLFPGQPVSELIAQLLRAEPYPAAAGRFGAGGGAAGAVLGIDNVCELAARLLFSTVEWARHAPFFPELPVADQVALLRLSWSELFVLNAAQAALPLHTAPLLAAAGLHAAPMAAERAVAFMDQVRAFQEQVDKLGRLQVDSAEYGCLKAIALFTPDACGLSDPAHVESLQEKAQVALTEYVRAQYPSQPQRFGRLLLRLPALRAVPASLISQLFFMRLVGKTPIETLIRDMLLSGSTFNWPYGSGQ

Renilla = Renilla signal in NR2F6 agonist screening, cmpd/DMSO; details: Renilla, F4
HEK293 pGL4 = assay: Firefly_pGL signal, cmpd/DMSO (pGL4 control cells); details: Homo sapiens
NR2F6 LBD = biological target: T2, NR2F6 LBD (Homo sapiens, UniProt P10588); assay: NR2F6 LBD transient transfection; details: LBD
T2 construct: expressed in transfected cells
T2 sequence (P10588 165-393 limits assumed): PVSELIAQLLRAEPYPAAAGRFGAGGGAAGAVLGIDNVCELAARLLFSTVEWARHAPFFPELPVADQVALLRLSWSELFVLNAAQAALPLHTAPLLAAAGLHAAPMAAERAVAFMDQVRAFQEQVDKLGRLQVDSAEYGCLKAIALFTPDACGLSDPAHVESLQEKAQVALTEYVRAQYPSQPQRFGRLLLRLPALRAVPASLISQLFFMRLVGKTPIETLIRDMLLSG
How it was run: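 LBD-transfected cells treated at 40, 10, 2 and 0.5 μM (4 replicates); cytotoxicity measured in parallel, normalized to DMSO (0%) and zero signal (100%). Higher concentrations excluded where signal loss reflected toxicity.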

[1] = read-out: Renilla, F4, cmpd/DMSO (mean)
[2] = 1% FBS, read-out: Renilla, F4, 1% FBS, cmpd/DMSO (mean)
[3] = 10% FBS, read-out: Renilla, F4, 10% FBS, cmpd/DMSO (mean)
[4] = HEK293, 0.5 uM, pGL4, read-out: Firefly pGL4, cmpd/DMSO (mean)
[5] = HEK293, 2 uM, pGL4, read-out: Firefly pGL4, cmpd/DMSO (mean)
[6] = HEK293, 10 uM, pGL4, read-out: Firefly pGL4, cmpd/DMSO (mean)
[7] = HEK293, 40 uM, pGL4, read-out: Firefly pGL4, cmpd/DMSO (mean)
[8] = HEK293, pGL4, 1% FBS, 0.5 uM, read-out: Firefly, pGL4, 1% FBS, cmpd/DMSO (mean)
[9] = HEK293, pGL4, 1% FBS, 2 uM, read-out: Firefly, pGL4, 1% FBS, cmpd/DMSO (mean)
[10] = HEK293, pGL4, 1% FBS, 10 uM, read-out: Firefly, pGL4, 1% FBS, cmpd/DMSO (mean)
[11] = HEK293, pGL4, 1% FBS, 40 uM, read-out: Firefly, pGL4, 1% FBS, cmpd/DMSO (mean)
[12] = HEK293, pGL4, 10% FBS, 0.5 uM, read-out: Firefly, pGL4, 10% FBS, cmpd/DMSO (mean)
[13] = HEK293, pGL4, 10% FBS, 2 uM, read-out: Firefly, pGL4, 10% FBS, cmpd/DMSO (mean)
[14] = HEK293, pGL4, 10% FBS, 10 uM, read-out: Firefly, pGL4, 10% FBS, cmpd/DMSO (mean)
[15] = HEK293, pGL4, 10% FBS, 40 uM, read-out: Firefly, pGL4, 10% FBS, cmpd/DMSO (mean)

## CC(C)CN[C@H]1CS(=O)(=O)C[C@@H]1S(=O)(=O)c1ccc(Cl)cc1 [Compound D120]
NR2F6; 0.5 uM
  Firefly F4, cmpd/DMSO (mean): 1.3
NR2F6; 2 uM
  Firefly F4, cmpd/DMSO (mean): 1.5
NR2F6; 10 uM
  Firefly F4, cmpd/DMSO (mean): 5.1
NR2F6; 40 uM
  Firefly F4, cmpd/DMSO (mean): 2.2
NR2F6; 1% FBS, 10 uM
  F4, Firefly/Renilla for S/B(F4) > 3: 2.3
  Firefly, F4/pGL4 for S/B(F4) > 3: 1.7
  Firefly, F4, 1% FBS, cmpd/DMSO (mean): 4.7
NR2F6; 10% FBS, 10 uM
  F4, Firefly/Renilla for S/B(F4) > 3: 2.1
  Firefly, F4/pGL4 for S/B(F4) > 3: 1.8
  Firefly, F4, 10% FBS, cmpd/DMSO (mean): 3.6
NR2F6; 1% FBS, 0.5 uM
  Firefly, F4, 1% FBS, cmpd/DMSO (mean): 0.8
NR2F6; 1% FBS, 2 uM
  Firefly, F4, 1% FBS, cmpd/DMSO (mean): 1.2
NR2F6; 1% FBS, 40 uM
  Firefly, F4, 1% FBS, cmpd/DMSO (mean): 0.2
NR2F6; 10% FBS, 0.5 uM
  Firefly, F4, 10% FBS, cmpd/DMSO (mean): 1.0
NR2F6; 10% FBS, 2 uM
  Firefly, F4, 10% FBS, cmpd/DMSO (mean): 1.2
NR2F6; 10% FBS, 40 uM
  Firefly, F4, 10% FBS, cmpd/DMSO (mean): 1.7
Renilla; [1]
  fold induction at 0.5 µM: 1
  fold induction at 2 µM: 1.2
  fold induction at 10 µM: 1.7
  fold induction at 40 µM: 1.6
Renilla; [2]
  fold induction at 0.5 µM: 1
  fold induction at 2 µM: 1.3
  fold induction at 10 µM: 2.1
  fold induction at 40 µM: 0.6
Renilla; [3]
  fold induction at 0.5 µM: 1
  fold induction at 2 µM: 1.1
  fold induction at 10 µM: 1.7
  fold induction at 40 µM: 1.5
HEK293 pGL4; [4]
  fold induction at 0.5 µM: 1.4
HEK293 pGL4; [5]
  fold induction at 2 µM: 1.5
HEK293 pGL4; [6]
  fold induction at 10 µM: 3.7
HEK293 pGL4; [7]
  fold induction at 40 µM: 0.8
HEK293 pGL4; [8]
  fold induction at 0.5 µM: 1.5
HEK293 pGL4; [9]
  fold induction at 2 µM: 1.5
HEK293 pGL4; [10]
  fold induction at 10 µM: 2.8
HEK293 pGL4; [11]
  fold induction at 40 µM: 0.9
HEK293 pGL4; [12]
  fold induction at 0.5 µM: 1.1
HEK293 pGL4; [13]
  fold induction at 2 µM: 1.7
HEK293 pGL4; [14]
  fold induction at 10 µM: 2
HEK293 pGL4; [15]
  fold induction at 40 µM: 0.7
NR2F6 LBD; 0.5 uM
  Firefly LBD, cmpd/DMSO (mean): 1.1
NR2F6 LBD; 2 uM
  Firefly LBD, cmpd/DMSO (mean): 1.7
NR2F6 LBD; 10 uM
  Firefly LBD, cmpd/DMSO (mean): 4.1
NR2F6 LBD; 40 uM
  Firefly LBD, cmpd/DMSO (mean): 0.8

## O=S1(=O)C[C@H](N2CCCC2)[C@@H](S(=O)(=O)c2ccc(Cl)cc2)C1 [Compound D122]
NR2F6; 0.5 uM
  Firefly F4, cmpd/DMSO (mean): 1.6
NR2F6; 2 uM
  Firefly F4, cmpd/DMSO (mean): 3.3
NR2F6; 10 uM
  Firefly F4, cmpd/DMSO (mean): 6.8
NR2F6; 40 uM
  Firefly F4, cmpd/DMSO (mean): 0.7
NR2F6; 1% FBS, 2 uM
  F4, Firefly/Renilla for S/B(F4) > 3: 2.3
  Firefly, F4/pGL4 for S/B(F4) > 3: 1.3
  Firefly, F4, 1% FBS, cmpd/DMSO (mean): 3.2
NR2F6; 10% FBS, 10 uM
  F4, Firefly/Renilla for S/B(F4) > 3: 3.9
  Firefly, F4/pGL4 for S/B(F4) > 3: 3.1
  Firefly, F4, 10% FBS, cmpd/DMSO (mean): 11
NR2F6; 1% FBS, 0.5 uM
  Firefly, F4, 1% FBS, cmpd/DMSO (mean): 1.4
NR2F6; 1% FBS, 10 uM
  Firefly, F4, 1% FBS, cmpd/DMSO (mean): 2.8
NR2F6; 1% FBS, 40 uM
  Firefly, F4, 1% FBS, cmpd/DMSO (mean): 0.3
NR2F6; 10% FBS, 0.5 uM
  Firefly, F4, 10% FBS, cmpd/DMSO (mean): 1.5
NR2F6; 10% FBS, 2 uM
  Firefly, F4, 10% FBS, cmpd/DMSO (mean): 1.8
NR2F6; 10% FBS, 40 uM
  Firefly, F4, 10% FBS, cmpd/DMSO (mean): 0.5
NR2F6; Table 31
  Activity, cmpd/DMSO: 6.6
Renilla; [1]
  fold induction at 0.5 µM: 1.1
  fold induction at 2 µM: 1.3
  fold induction at 10 µM: 2.2
  fold induction at 40 µM: 0.2
Renilla; [2]
  fold induction at 0.5 µM: 1.2
  fold induction at 2 µM: 1.4
  fold induction at 10 µM: 2.2
Renilla; [3]
  fold induction at 0.5 µM: 1
  fold induction at 2 µM: 1
  fold induction at 10 µM: 2.9
HEK293 pGL4; [4]
  fold induction at 0.5 µM: 1.3
HEK293 pGL4; [5]
  fold induction at 2 µM: 2.4
HEK293 pGL4; [6]
  fold induction at 10 µM: 2.3
HEK293 pGL4; [7]
  fold induction at 40 µM: 0.6
HEK293 pGL4; [8]
  fold induction at 0.5 µM: 1.1
HEK293 pGL4; [9]
  fold induction at 2 µM: 2.5
HEK293 pGL4; [10]
  fold induction at 10 µM: 2.6
HEK293 pGL4; [11]
  fold induction at 40 µM: 0.7
HEK293 pGL4; [12]
  fold induction at 0.5 µM: 0.9
HEK293 pGL4; [13]
  fold induction at 2 µM: 2.2
HEK293 pGL4; [14]
  fold induction at 10 µM: 3.7
HEK293 pGL4; [15]
  fold induction at 40 µM: 0.7
NR2F6 LBD; 0.5 uM
  Firefly LBD, cmpd/DMSO (mean): 1.2
NR2F6 LBD; 2 uM
  Firefly LBD, cmpd/DMSO (mean): 2.5
NR2F6 LBD; 10 uM
  Firefly LBD, cmpd/DMSO (mean): 3.1
NR2F6 LBD; 40 uM
  Firefly LBD, cmpd/DMSO (mean): 0.6

— patent publication US11377442B2, “Small molecule agonists and antagonists of NR2F6 activity” (ZANDER THERAPEUTICS, INC., priority 2016, dated 2022)
